Key:
A-II-receptor = molecular target: T1, A-II-receptor (Bos taurus, UniProt P25104); experiment: Inhibition of Binding of Angiotensin-II to Angiotensin Receptor (125I-A-II, membrane fraction of bovine adrenal cortex); conditions: room temperature, one hour
T1 construct: An A-II-receptor was prepared from the membrane fraction of bovine adrenal cortex; from tissue; host or cells: bovine adrenal cortex, membrane fraction
T1 sequence (P25104 1-359): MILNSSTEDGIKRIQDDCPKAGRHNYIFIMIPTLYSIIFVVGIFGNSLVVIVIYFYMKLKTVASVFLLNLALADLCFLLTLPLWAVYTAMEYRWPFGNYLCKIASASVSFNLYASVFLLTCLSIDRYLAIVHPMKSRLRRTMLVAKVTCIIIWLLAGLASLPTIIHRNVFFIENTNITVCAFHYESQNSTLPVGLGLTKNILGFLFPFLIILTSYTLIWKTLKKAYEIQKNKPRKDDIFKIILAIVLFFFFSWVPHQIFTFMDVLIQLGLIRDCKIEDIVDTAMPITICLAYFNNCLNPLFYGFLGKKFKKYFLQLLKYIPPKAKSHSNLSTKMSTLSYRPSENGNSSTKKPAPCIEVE
Experimental: Inhibition of Binding of Angiotensin-II to Angiotensin Receptor
An experiment of inhibition on the binding of angiotensin-II (A-II) to A-II-receptor was conducted by modifying the method of Douglas et al. [Endocrinology, 102, 685-696 (1978)]. An A-II-receptor was prepared from the membrane fraction of bovine adrenal cortex.
The compound of the present invention (10^-6 M to 10^-8 M) and ^125 I-A-II (1.85 kBq/50 μl) were added to the receptor membrane fraction, and the mixture was incubated at room temperature for one hour. The receptor-bound and free ^125 I-A-II were separated through a filter (Whatman GF/B filter), and the radioactivity of ^125 I-A-II bound to the receptor was measured.

Pressor Response to A II = experiment: Inhibitory Effect of the Compound on Pressor Action of A-II in rats; type: in vivo, Jcl: SD rats; conditions: Rattus norvegicus, po
Description: Inhibitory Effect of the Compound of the Present Invention on Pressor Action of A-II
Jcl: SD rats (9 week old, male) were used. On the day previous to the experiment, these animals were applied with cannulation into the femoral artery and vein under anesthesia with pentobarbital Na. The animals were fasted but allowed to access freely to drinking water until the experiment was started. Just on the day of conducting the experiment, the artery cannula was connected with a blood-pressure transducer, and the average blood pressure was recorded by means of polygraph. Before administration of the drug, the pressor action due to intravenous administration of A-II (100 ng/kg) as the control was measured. The drugs were orally administered, and then, at each point of the measurement, A-II was administered intravenously, and the pressor action was similarly measured. By comparing the pressor action before and after administration of the drug, the percent inhibition by the drug on A-II-induced pressor action was evaluated.

angiotensin II = conditions: reported in the literature; cited from earlier work

| IC50 (A-II-receptor) | Compound | inhibition in vivo at 30 mg/kg (Pressor Response to A II) | angiotensin II antagonistic activity (angiotensin II) |
| --- | --- | --- | --- |
| 860 nM | CCCn1c(=O)cc(SC)n(Cc2ccc(-c3ccccc3-c3nn[nH]n3)cc2)c1=O [compound 1] | – | – |
| 20 nM | CCCn1c(=O)cc(SCC)n(Cc2ccc(-c3ccccc3-c3nn[nH]n3)cc2)c1=O [compound 2] | ≥ 70% | – |
| 20 nM | CCCSc1cc(=O)n(CCC)c(=O)n1Cc1ccc(-c2ccccc2-c2nnn[nH]2)cc1 [compound 3] | – | – |
| 40 nM | CCCCSc1cc(=O)n(CCC)c(=O)n1Cc1ccc(-c2ccccc2-c2nn[nH]n2)cc1 [compound 4] | ≥ 70% | – |
| 320 nM | CCCn1c(=O)cc(SC2CCCCC2)n(Cc2ccc(-c3ccccc3-c3nn[nH]n3)cc2)c1=O [compound 5] | 30 to 50% | – |
| 20 nM | CCCCCSc1cc(=O)n(CCC)c(=O)n1Cc1ccc(-c2ccccc2-c2nn[nH]n2)cc1 [compound 6] | 30 to 50% | – |
| 330 nM | CCCn1c(=O)cc(SCc2ccccc2)n(Cc2ccc(-c3ccccc3-c3nn[nH]n3)cc2)c1=O [compound 7] | < 30% | – |
| 60 nM | CCCn1c(=O)cc(OCC)n(Cc2ccc(-c3ccccc3-c3nn[nH]n3)cc2)c1=O [compound 8] | ≥ 70% | – |
| 40 nM | CCCCn1c(=O)cc(SCCC)n(Cc2ccc(-c3ccccc3-c3nn[nH]n3)cc2)c1=O [compound 9] | ≥ 70% | – |
| 320 nM | CCCCn1c(=O)cc(Sc2ccccc2)n(Cc2ccc(-c3ccccc3-c3nn[nH]n3)cc2)c1=O [compound 10] | < 30% | – |
| 340 nM | CCCNc1cc(=O)n(CCC)c(=O)n1Cc1ccc(-c2ccccc2-c2nn[nH]n2)cc1 [compound 14] | < 30% | – |
| 140 nM | CCCOc1cc(=O)n(CCC)c(=O)n1Cc1ccc(-c2ccccc2-c2nnn[nH]2)cc1 [compound 18] | ≥ 70% | – |
| 20 nM | CCCc1cc(=O)n(CC)c(=O)n1Cc1ccc(-c2ccccc2-c2nn[nH]n2)cc1 [compound 23] | ≥ 70% | – |
| 20 nM | CCCc1cc(=O)n(CCC)c(=O)n1Cc1ccc(-c2ccccc2-c2nn[nH]n2)cc1 [compound 25] | ≥ 70% | – |
| 20 nM | CCCCn1c(=O)cc(CCC)n(Cc2ccc(-c3ccccc3-c3nn[nH]n3)cc2)c1=O [compound 26] | ≥ 70% | – |
| 10 nM | CCCc1cc(=O)n(CC(=O)OC)c(=O)n1Cc1ccc(-c2ccccc2-c2nn[nH]n2)cc1 [compound 27] | ≥ 70% | – |
| 20 nM | CCCc1cc(=O)n(CC(=O)OCC)c(=O)n1Cc1ccc(-c2ccccc2-c2nn[nH]n2)cc1 [compound 28] | ≥ 70% | – |
| – | CNCC(=O)N[C@@H](CCCN=C(N)N)C(=O)N[C@H](C(=O)N[C@@H](Cc1ccc(O)cc1)C(=O)N[C@H](C(=O)N[C@@H](Cc1cnc[nH]1)C(=O)N1CCC[C@H]1C(=O)N[C@@H](C)C(=O)O)C(C)C)C(C)C [saralasin] | – | potent angiotensin II antagonistic activity |

Reference: patent publication US5162326A, “Pyrimidinedione derivatives, their production and use” (Takeda Chemical Industries, Ltd., priority 1990, dated 1992)
